Patent US10844013B2, “Phenyl amino piperidine mTORC inhibitors and uses thereof” (Navitor Pharmaceuticals, Inc., priority 2016, dated 2020)
Counter-ions that a name gives are not always drawn. Like-named read-outs stand apart in the source and are kept apart here.

Columns and labels:
[1] = system: pS6K1 (p-p70 S6 Kinase (Thr389)) in MCF-7 cells; assay: AlphaLISA Ultra pS6K1 assay; assay type: cell-based; details: 2 hours compound incubation
Procedure, shortened: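 MCF-7 cells seeded 20–24 h, medium refreshed 2 h, then treated 2 h with compound (0.5% DMSO final). Lysates probed for Thr389-phosphorylated p70 S6K by AlphaLISA Ultra, 2 h acceptor then 2 h donor bead incubation, read on a multimode reader.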

[2] = system: pAKT (p-Akt 1/2/3 (Ser473)) in MCF-7 cells; assay: AlphaLISA Ultra pAKT assay; assay type: cell-based
Procedure, shortened: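 AlphaLISA read-out (2 h acceptor-bead, then 2 h donor-bead incubation) on thawed lysates of MCF-7 cells exposed to compounds for 2 h in 0.5% DMSO. Cells had been plated 20-24 h and given fresh medium 2 h before dosing.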

[3] = Homo sapiens, MCF7, 2 hours compound incubation

| SMILES | IC50 ([1]; Homo sapiens, MCF7, 2 h) | IC50 [2, 3] | IC50 ([1]; read-out: pS6K1 in MCF7: IC50) | IC50 ([2]; 2 hours compound incubation, read-out: pAKT in MCF7: IC50) |
| --- | --- | --- | --- | --- |
| Cc1cc(C)c(C(=O)N2CCN(c3ccccc3)[C@@H](CO)C2)cc1NC1CCN(c2ccccc2C#N)CC1 (single isomer, unassigned) [I-41, 2-[4-({5-[3R or S-(hydroxymethyl)-4-phenylpiperazine-1-carbonyl]-2,4-dimethylphenyl}amino)piperidin-1-yl]benzonitrile] | 1 to 3 µM | > 10 µM |  |  |
| Cc1cc(C)c(C(=O)N2CCN(c3ncccc3S(N)(=O)=O)CC2)c(C)c1N[C@H]1CCN(c2ccccc2C#N)C[C@H]1C [I-178, 2-(4-(3-(((3R,4S)-1-(2-cyanophenyl)-3-methylpiperidin-4-yl)amino)-2,4,6-trimethylbenzoyl)piperazin-1-yl)pyridine-3-sulfonamide] | 0.01 to 1 µM | > 10 µM |  |  |
| Cc1cc(C)c(C(=O)N2CCN(c3ccccc3C#N)CC2)cc1NC1CCCN(c2ccc(C#N)cc2)CC1 (stereo not shown) [I-80, 2-[4-(5-{[1-(4-cyanophenyl)azepan-4-yl]amino}-2,4-dimethylbenzoyl)piperazin-1-yl]benzonitrile] | 1 to 3 µM | > 10 µM |  |  |
| Cc1cc(C)c(C(=O)N2CCN(c3ccccn3)C(=O)C2)c(C)c1NC1CCN(c2ccc(F)cc2C#N)CC1 [I-143, 5-fluoro-2-[4-({2,4,6-trimethyl-3-[3-oxo-4-(pyridin-2-yl)piperazine-1-carbonyl]phenyl}amino)piperidin-1-yl] benzonitrile] | 0.01 to 1 µM | > 10 µM |  |  |
| Cc1cc(C)c(C(=O)N2CCN(c3ccccc3)C(CO)C2)cc1NC1CCN(c2ccccc2C#N)CC1 (stereo not shown) [I-63, 2-[4-({5-[3-(Hydroxymethyl)-4-phenylpiperazine-1-carbonyl]-2,4-dimethylphenyl}amino)piperidin-1-yl]benzonitrile] | 0.01 to 1 µM | > 10 µM |  |  |
| Cc1ccc(C(=O)N2CCN(c3ccccc3)C(CO)C2)cc1NC1CCN(c2ccccc2C#N)CC1 (single isomer, unassigned) [I-85, 2-[4-({5-[(3S or R)-3-(hydroxymethyl)-4-phenylpiperazine-1-carbonyl]-2-methylphenyl}amino)piperidin-1-yl]benzonitrile] |  |  | 0.01 to 1 µM | > 10 µM |
| Cc1cc(C)c(C(=O)N2CCN(c3ncccc3S(N)(=O)=O)C[C@@H]2C)c(C)c1NC1CCN(c2ccccc2C#N)CC1 [I-188, (S)-2-(4-(3-(1-(2-cyanophenyl)piperidin-4-ylamino)-2,4,6-trimethylbenzoyl)-3-methylpiperazin-1-yl)pyridine-3-sulfonamide] | 1 to 3 µM | > 10 µM |  |  |
| Cc1cc(C)c(C(=O)N2CCN(c3ccccc3C#N)CC2)cc1NC1CCN(c2cccc(Cl)c2)CC1 [I-17, 2-(4-(5-(1-(3-Chlorophenyl)piperidin-4-ylamino)-2,4-dimethylbenzoyl)piperazin-1-yl)benzonitrile] | 1 to 3 µM | > 10 µM |  |  |
| Cc1cc(C)c(C(=O)N2CCN(c3ccccc3C#N)CC2)cc1NC1CCN(c2cccc(C#N)c2)CC1 [I-18, 2-(4-(5-(1-(3-Cyanophenyl)piperidin-4-ylamino)-2,4-dimethylbenzoyl)piperazin-1-yl)benzonitrile trifluoroacetate] | 1 to 3 µM | > 10 µM |  |  |
| Cc1cc(C)c(C(=O)N2CCN(c3c(F)cc(F)cc3S(N)(=O)=O)CC2)cc1NC1CCN(c2ccccc2C#N)CC1 [I-174, 2-(4-(5-((1-(2-cyanophenyl)piperidin-4-yl)amino)-2,4-dimethylbenzoyl)piperazin-1-yl)-3,5-difluorobenzenesulfonamide] | 0.01 to 1 µM | > 10 µM |  |  |
| Cc1cc(C)c(C(=O)N2CCN(c3ccccc3S(N)(=O)=O)CC2)c(C)c1NC1CCN(c2ccccc2C#N)CC1 [I-42] | 0.01 to 1 µM | > 10 µM |  |  |
| COc1cc(C)c(C(=O)N2CCN(c3ccccc3S(N)(=O)=O)CC2)cc1NC1CCN(c2ccccc2C#N)CC1 [I-127, 2-(4-(5-(1-(2-Cyanophenyl)piperidin-4-ylamino)-4-methoxy-2-methylbenzoyl)piperazin-1-yl)benzenesulfonamide] | 3 to 5 µM | > 10 µM |  |  |
| Cc1cc(C)c(C(=O)N2CCN(c3ncccc3S(N)(=O)=O)C[C@@H]2C)c(C)c1NC1CCN(c2ccc(F)cc2C#N)CC1 [I-193, (S)-2-(4-(3-(1-(2-cyano-4-fluorophenyl)piperidin-4-ylamino)-2,4,6-trimethylbenzoyl)-3-methylpiperazin-1-yl)pyridine-3-sulfonamide] | 1 to 3 µM | > 10 µM |  |  |
| Cc1cc(C)c(C(=O)N2CCN(c3ccccc3S(N)(=O)=O)CC2)nc1NC1CCN(c2ccccc2C#N)CC1 [I-66, 2-(4-(6-(1-(2-Cyanophenyl)piperidin-4-ylamino)-3,5-dimethylpicolinoyl)piperazin-1-yl)benzenesulfonamide] | 0.01 to 1 µM | > 10 µM |  |  |
| CNC(=O)c1ccccc1N1CCN(C(=O)c2cc(NC3CCN(c4ccccc4C#N)CC3)c(C)cc2C)C[C@H]1CO (single isomer, unassigned) [I-134] | 1 to 3 µM | > 10 µM |  |  |
| Cc1cc(C)c(C(=O)N2CCN(c3ncccc3C(N)=O)CC2)cc1NC1CCN(c2ccccc2C#N)CC1 [I-28] | 1 to 3 µM | > 10 µM |  |  |
| CNC(=O)C1CN(C(=O)c2cc(NC3CCN(c4ccccc4C#N)CC3)c(C)cc2C)CCN1c1ccccc1 (stereo not shown) [I-32, 4-(5-{[1-(2-cyanophenyl)piperidin-4-yl]amino}-2,4-dimethylbenzoyl)-N-methyl-1-phenylpiperazine-2-carboxamide] | 1 to 3 µM | > 10 µM |  |  |
| Cc1cc(C)c(C(=O)N2CCN(c3ccccc3)[C@H](CO)C2)c(C)c1NC1CCN(c2cccnn2)CC1 [I-158, [(2S)-1-phenyl-4-(2,4,6-trimethyl-3-{[1-(pyridazin-3-yl)piperidin-4-yl]amino}benzoyl)piperazin-2-yl]MeOH] | 0.01 to 1 µM | > 10 µM |  |  |
| Cc1cc(C)c(C(=O)N2CCN(c3ccccc3)[C@H](CO)C2)cc1NC1CCN(c2ccccc2C#N)CC1 (single isomer, unassigned) [I-40, 2-[4-({5-[3S or R-(hydroxymethyl)-4-phenylpiperazine-1-carbonyl]-2,4-dimethylphenyl}amino)piperidin-1-yl]benzonitrile] | 0.01 to 1 µM | > 10 µM |  |  |
| Cc1cc(C)c(C(=O)N2CCN(c3ccccn3)[C@H](CO)C2)cc1NC1CCN(c2ccccc2C#N)CC1 (single isomer, unassigned) [I-38, 2-[4-({5-[(3S or 3R)-3-(hydroxymethyl)-4-(pyridin-2-yl)piperazine-1-carbonyl]-2,4-dimethylphenyl}amino)piperidin-1-yl]benzonitrile] | 3 to 5 µM | > 10 µM |  |  |
| Cc1ccc(C(=O)N2CCN(c3ncccc3S(N)(=O)=O)CC2)c(C)c1NC1CCN(c2ccccc2C#N)CC1 [I-120, 2-(4-(3-(1-(2-cyanophenyl)piperidin-4-ylamino)-2,4-dimethylbenzoyl)piperazin-1-yl)pyridine-3-sulfonamide] | 0.01 to 1 µM | > 10 µM |  |  |
| Cc1cc(C)c(C(=O)N2CCN(c3cccc(F)c3S(N)(=O)=O)CC2)nc1NC1CCN(c2ccccc2C#N)CC1 [I-16, 2-(4-(6-(1-(2-Cyanophenyl)piperidin-4-ylamino)-3,5-dimethylpicolinoyl)piperazin-1-yl)-6-fluorobenzenesulfonamide] | 0.01 to 1 µM | > 10 µM |  |  |
| Cc1cc(C)c(C(=O)N2CCN(c3ccccc3)C(C(N)=O)C2)c(C)c1NC1CCN(c2ccccc2C#N)CC1 (stereo not shown) [I-139, 4-(3-{[1-(2-cyanophenyl)piperidin-4-yl]amino}-2,4,6-trimethyl-benzoyl)-1-phenyl-piperazine-2-carboxamide] | 0.01 to 1 µM | > 10 µM |  |  |
| CNC(=O)c1ccccc1N1CCN(C(=O)c2cc(NC3CCN(c4ccccc4C#N)CC3)c(C)cc2C)C[C@@H]1CO (single isomer, unassigned) [I-133] | 1 to 3 µM | > 10 µM |  |  |
| Cc1cc(C)c(C(=O)N2CCN(c3ccccn3)[C@H](CO)C2)c(C)c1NC1CCN(c2ccccn2)CC1 [I-156, [(2S)-1-(pyridin-2-yl)-4-(2,4,6-trimethyl-3-{[1-(pyridin-2-yl)piperidin-4-yl]amino}benzoyl)piperazin-2-yl]MeOH] | 0.01 to 1 µM | > 10 µM |  |  |
| Cc1cc(C)c(C(=O)N2CCN(c3ccc(F)cc3)C(CO)C2)cc1NC1CCN(c2ccccc2C#N)CC1 (stereo not shown) [I-76, 2-[4-({5-[4-(4-fluorophenyl)-3-(hydroxymethyl)piperazine-1-carbonyl]-2,4-dimethylphenyl}amino)piperidin-1-yl]benzonitrile] | 0.01 to 1 µM | > 10 µM |  |  |
| Cc1cc(C)c(C(=O)N2CCN(c3ncccc3S(N)(=O)=O)CC2)c(C)c1N[C@H]1CCN(c2ccccc2C#N)C[C@@H]1C [I-181, 2-(4-(3-(((3S,4S)-1-(2-cyanophenyl)-3-methylpiperidin-4-yl)amino)-2,4,6-trimethylbenzoyl)piperazin-1-yl)pyridine-3-sulfonamide] | 0.01 to 1 µM | > 10 µM |  |  |
| Cc1cc(C)c(C(=O)N2CCN(c3ccccc3)[C@H](C)C2)cc1NC1CCN(c2ccccc2C#N)CC1 [I-47, (R)-2-(4-(2,4-Dimethyl-5-(3-methyl-4-phenylpiperazine-1-carbonyl)phenylamino)piperidin-1-yl)benzonitrile] | 1 to 3 µM | > 10 µM |  |  |
| Cc1cc(C)c(C(=O)N2CCN(c3ccc(F)cn3)C(=O)C2)cc1NC1CCN(c2ccccc2C#N)CC1 [I-72, 2-[4-({5-[4-(5-Fluoropyridin-2-yl)-3-oxopiperazine-1-carbonyl]-2,4-dimethylphenyl}amino)piperidin-1-yl]benzonitrile] | 3 to 5 µM | > 10 µM |  |  |
